Each compound was assayed against HIF prolyl hydroxylase-2 (HIF-PHD2) (Homo sapiens (Human), UniProt Q9GZT9) (assay: Effect of compounds on activities of HIF prolyl hydroxylase-2 (hydroxylation of immobilized HIF-1α556-574 peptide, Eu-VBC binding, OD 450 nm)). Conditions: HIF-PHD2, biotinyl-HIF-1α556-574 substrate; representative, relative values.
Assay type: biochemical

Sequence of HIF prolyl hydroxylase-2 (HIF-PHD2) (Q9GZT9 whole entry, species assumed): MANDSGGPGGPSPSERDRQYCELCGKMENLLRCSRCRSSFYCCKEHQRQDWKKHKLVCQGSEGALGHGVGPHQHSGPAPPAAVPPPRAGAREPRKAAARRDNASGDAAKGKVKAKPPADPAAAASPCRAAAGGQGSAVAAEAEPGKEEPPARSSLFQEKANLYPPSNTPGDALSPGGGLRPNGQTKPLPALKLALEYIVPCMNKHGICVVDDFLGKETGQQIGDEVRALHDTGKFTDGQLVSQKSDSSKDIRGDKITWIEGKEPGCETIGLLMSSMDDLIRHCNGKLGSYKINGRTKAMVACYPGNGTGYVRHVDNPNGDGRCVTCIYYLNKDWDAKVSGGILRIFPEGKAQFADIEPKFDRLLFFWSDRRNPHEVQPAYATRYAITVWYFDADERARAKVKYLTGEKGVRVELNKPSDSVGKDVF

Q: Which IC50 does the source give for `CC(C)(C)C(=O)OCOC(=O)CNC(=O)C1=C(O)C2(CCCCC2)n2cccc2C1=O` [Example 22, (((6′-hydroxy-8′-oxo-8′H-spiro[cyclohexane-1,5′-indolizine]-7′-carbonyl)glycyloxy)methyl) pivalate] here?
A: Its IC50 is over 10 µM.

Q: Which IC50 does the source give for `COC(=O)CNC(=O)C1=C(O)C2(CCCC2)n2cccc2C1=O` [Example 9, (6′-Hydroxy-8′-oxo-8′H-spiro[cyclopentane-1,5′-indolizine]-7′-carbonyl)glycine methyl ester] here?
A: The IC50 was over 10 µM.

Q: With `CCOC(=O)CNC(=O)C1=C(O)C2(CCCC2)n2cccc2C1=O` [Example 10, (6′-Hydroxy-8′-oxo-8′H-spiro[cyclopentane-1,5′-indolizine]-7′-carbonyl)glycine ethyl ester] as the compound, how does the IC50 read?
A: The IC50 was over 10 µM.

Q: For `CCOC(=O)[C@H](C)NC(=O)C1=C(O)C2(CCCC2)n2cccc2C1=O` [Example 21, (6′-Hydroxy-8′-oxo-8′H-spiro[cyclopentane-1,5′-indolizine]-7′-carbonyl)-L-alanine ethyl ester], which IC50 is on record?
A: Its IC50 is over 10 µM.

Q: With `CCOC(=O)CNC(=O)C1=C(O)C2(CCCCC2)n2cccc2C1=O` [Example 46, (6′-Hydroxy-8′-oxo-8′H-spiro[cyclohexane-1,5′-indolizine]-7′-carbonyl)glycine ethyl ester] as the compound, how does the IC50 read?
A: The IC50 was over 10 µM.

These compounds were tested on hemoglobin in mice (assay: Effect of compounds of Examples on hemoglobin in mice). Conditions: male C57B1/6 mice, oral 30 mg/kg, 3 times each week for 2 weeks; 6 hours after last administration minus before first administration.
Assay type: in vivo
Description: Male C57B1/6 mice of 8-10 weeks (Shanghai Slack Laboratory Animals Co., Ltd.) were administrated orally the test compounds in 30 mg/kg for 2 weeks, 3 times each week and Roxadustat (CAS: 808118-40-3) was administrated in an amount of 60 mg/kg as a positive control. Before the first administration and 6 hours after the last administration, about 30 μl of blood was taken from the mandibular vein, and the hemoglobin content was measured by Hemocue hemoglobin analyzer. The hemoglobin elevation was calculated as the value obtained by subtracting the first hemoglobin content from the hemoglobin content after the last administration.
In addition, hemoglobin elevation was also tested in the same manner for Roxadustat as a positive control. Roxadustat was purchased from Selleckchem, which was known to be a potent inhibitor of HIF prolyl hydroxylase in the art and be able to increase hemoglobin production.

Q: Which Hemoglobin elevation does the source give for `C[C@H](NC(=O)C1=C(O)C2(CCCC2)n2cccc2C1=O)C(=O)O` [Example 11, (6′-Hydroxy-8′-oxo-8′H-spiro[cyclopentane-1,5′-indolizine]-7′-carbonyl)-L-alanine] here?
A: The Hemoglobin elevation was 2.0 g/dL.

Q: With `C[C@H](NC(=O)C1=C(O)C2(CC2)n2cccc2C1=O)C(=O)O` [Example 2, (6′-Hydroxy-8′-oxo-8′H-spiro[cyclopropane-1,5′-indolizine]-7′-carbonyl)-L-alanine] as the compound, how does the Hemoglobin elevation read?
A: Its Hemoglobin elevation is 0.6 g/dL.

Q: Which Hemoglobin elevation does the source give for `C[C@H]1CC[C@@]2(CC1)C(O)=C(C(=O)NCC(=O)O)C(=O)c1cccn12` [Example 69, ((1,4-cis)-6′-hydroxy-4-methyl-8′-oxo-8′H-spiro[cyclohexane-1,5′-indolizine]-7′-carbonyl)glycine] here?
A: Its Hemoglobin elevation is 0.7 g/dL.

Q: For `C[C@@H](NC(=O)C1=C(O)C2(CCCC2)n2cccc2C1=O)C(=O)O` [Example 12, (6′-Hydroxy-8′-oxo-8′H-spiro[cyclopentane-1,5′-indolizine]-7′-carbonyl)-D-alanine], which Hemoglobin elevation is on record?
A: Its Hemoglobin elevation is 0.8 g/dL.

Q: With `C[C@H](NC(=O)C1=C(O)C(C)(C)n2cccc2C1=O)C(=O)O` [Example 5, (6-Hydroxy-5,5-dimethyl-8-oxo-5,8-dihydroindolizin-7-carbonyl)-L-alanine] as the compound, how does the Hemoglobin elevation read?
A: The Hemoglobin elevation was 1.0 g/dL.

Q: Which Hemoglobin elevation does the source give for `CC1(C)C(O)=C(C(=O)NCC(=O)O)C(=O)c2cccn21` [Example 4, (6-Hydroxy-5,5-dimethyl-8-oxo-5,8-dihydroindolizin-7-carbonyl) glycine] here?
A: The Hemoglobin elevation was 0.8 g/dL.

Q: With `O=C(O)CNC(=O)C1=C(O)C2(CCCC2)n2ccc(C3CC3)c2C1=O` [Example 62, (1′-cyclopropyl-6′-hydroxy-8′-oxo-8′H-spiro[cyclopentane-1,5′-indolizine]-7′-carbonyl)glycine] as the compound, how does the Hemoglobin elevation read?
A: Its Hemoglobin elevation is 0.1 g/dL.

Q: For `C[C@H](NC(=O)C1=C(O)C2(CCCCC2)n2cccc2C1=O)C(=O)O` [Example 14, (6′-Hydroxy-8′-oxo-8′H-spiro[cyclohexane-1,5′-indolizine]-7′-carbonyl)-L-alanine], which Hemoglobin elevation is on record?
A: The Hemoglobin elevation was 1.0 g/dL.

Q: Which Hemoglobin elevation does the source give for `O=C(O)CNC(=O)C1=C(O)C2(CCCC2)n2c(ccc2-c2ccccc2)C1=O` [Example 24, (6′-Hydroxy-8′-oxo-3′-phenyl-8′H-spiro[cyclopentane-1,5′-indolizine]-7′-carbonyl)glycine] here?
A: Its Hemoglobin elevation is 4.0 g/dL.

Q: `O=C(O)CNC(=O)C1=C(O)C2(CCCCC2)n2cccc2C1=O` [Example 13, (6′-Hydroxy-8′-oxo-8′H-spiro[cyclohexane-1,5′-indolizine]-7′-carbonyl)glycine] was tested. Which Hemoglobin elevation did it give?
A: The Hemoglobin elevation was 4.3 g/dL.

Q: Which Hemoglobin elevation does the source give for `C[C@H](NC(=O)C1=C(O)C2(CCC2)n2cccc2C1=O)C(=O)O` [Example 7, (6′-Hydroxy-8′-oxo-8′H-spiro[cyclobutane-1,5′-indolizine]-7′-carbonyl)-L-alanine] here?
A: Its Hemoglobin elevation is 0.7 g/dL.

Q: `O=C(O)CNC(=O)C1=C(O)C2(CCC2)n2c(ccc2-c2ccccc2)C1=O` [Example 39, (6′-Hydroxy-8′-oxo-3′-phenyl-8′H-spiro[cyclobutane-1,5′-indolizine]-7′-carbonyl)glycine] was tested. Which Hemoglobin elevation did it give?
A: Its Hemoglobin elevation is 4.8 g/dL.

Q: For `O=C(O)CNC(=O)C1=C(O)C2(CCCC2)n2cccc2C1=O` [Example 8, (6′-Hydroxy-8′-oxo-8′H-spiro[cyclopentane-1,5′-indolizine]-7′-carbonyl)glycine], which Hemoglobin elevation is on record?
A: The Hemoglobin elevation was 3.1 g/dL.

Q: With `C[C@H]1CC[C@]2(CC1)C(O)=C(C(=O)NCC(=O)O)C(=O)c1cccn12` [Example 68, ((1,4-trans)-6′-hydroxy-4-methyl-8′-oxo-8′H-spiro[cyclohexane-1,5′-indolizine]-7′-carbonyl)glycine] as the compound, how does the Hemoglobin elevation read?
A: The Hemoglobin elevation was 5.2 g/dL.

Q: Which Hemoglobin elevation does the source give for `COC(=O)CNC(=O)C1=C(O)C2(CCCC2)n2cccc2C1=O` [Example 9, (6′-Hydroxy-8′-oxo-8′H-spiro[cyclopentane-1,5′-indolizine]-7′-carbonyl)glycine methyl ester] here?
A: The Hemoglobin elevation was 2.0 g/dL.

Q: How did the Hemoglobin elevation turn out when `CCOC(=O)CNC(=O)C1=C(O)C2(CCCC2)n2cccc2C1=O` [Example 10, (6′-Hydroxy-8′-oxo-8′H-spiro[cyclopentane-1,5′-indolizine]-7′-carbonyl)glycine ethyl ester] was run?
A: The Hemoglobin elevation was 1.9 g/dL.

Q: For `O=C(O)CNC(=O)C1=C(O)C2(CCCCCC2)n2cccc2C1=O` [Example 67, (6′-Hydroxy-8′-oxo-8′H-spiro[cycloheptane-1,5′-indolizine]-7′-carbonyl)glycine], which Hemoglobin elevation is on record?
A: The Hemoglobin elevation was 0.8 g/dL.

Q: With `CCOC(=O)[C@H](C)NC(=O)C1=C(O)C2(CCCC2)n2cccc2C1=O` [Example 21, (6′-Hydroxy-8′-oxo-8′H-spiro[cyclopentane-1,5′-indolizine]-7′-carbonyl)-L-alanine ethyl ester] as the compound, how does the Hemoglobin elevation read?
A: The Hemoglobin elevation was 1.8 g/dL.

Q: How did the Hemoglobin elevation turn out when `O=C(O)CNC(=O)C1=C(O)C2(CCC2)n2cccc2C1=O` [Example 6, (6′-Hydroxy-8′-oxo-8′H-spiro[cyclobutane-1,5′-indolizine]-7′-carbonyl)glycine] was run?
A: The Hemoglobin elevation was 0.9 g/dL.

Q: How did the Hemoglobin elevation turn out when `O=C(O)CNC(=O)C1=C(O)C2(CCCCC2)n2c(ccc2-c2ccccc2)C1=O` [Example 35, (6′-Hydroxy-8′-oxo-3′-phenyl-8′H-spiro[cyclohexane-1,5′-indolizine]-7′-carbonyl)glycine] was run?
A: The Hemoglobin elevation was 2.5 g/dL.

Q: Which Hemoglobin elevation does the source give for `O=C(O)CNC(=O)C1=C(O)C2(CC2)n2cccc2C1=O` [Example 1, (6′-Hydroxy-8′-oxo-8′H-spiro[cyclopropane-1,5′-indolizine]-7′-carbonyl) glycine] here?
A: Its Hemoglobin elevation is 1.0 g/dL.

Same assay, conditions: positive control, male C57B1/6 mice, 60 mg/kg, 3 times each week for 2 weeks; 6 hours after last administration minus before first administration

Q: For `Cc1nc(C(=O)NCC(=O)O)c(O)c2ccc(Oc3ccccc3)cc12` [Roxadustat, reference compound], which Hemoglobin elevation is on record?
A: Its Hemoglobin elevation is 1.7 g/dL.

Reference: patent US11021478B2, “Indolizine derivatives and their application in medicine” (Kind Pharmaceutical, priority 2017, dated 2021)
